Data set [1] addresses T1, Aromatase (Homo sapiens, UniProt P11511).
T1 sequence (P11511 whole entry): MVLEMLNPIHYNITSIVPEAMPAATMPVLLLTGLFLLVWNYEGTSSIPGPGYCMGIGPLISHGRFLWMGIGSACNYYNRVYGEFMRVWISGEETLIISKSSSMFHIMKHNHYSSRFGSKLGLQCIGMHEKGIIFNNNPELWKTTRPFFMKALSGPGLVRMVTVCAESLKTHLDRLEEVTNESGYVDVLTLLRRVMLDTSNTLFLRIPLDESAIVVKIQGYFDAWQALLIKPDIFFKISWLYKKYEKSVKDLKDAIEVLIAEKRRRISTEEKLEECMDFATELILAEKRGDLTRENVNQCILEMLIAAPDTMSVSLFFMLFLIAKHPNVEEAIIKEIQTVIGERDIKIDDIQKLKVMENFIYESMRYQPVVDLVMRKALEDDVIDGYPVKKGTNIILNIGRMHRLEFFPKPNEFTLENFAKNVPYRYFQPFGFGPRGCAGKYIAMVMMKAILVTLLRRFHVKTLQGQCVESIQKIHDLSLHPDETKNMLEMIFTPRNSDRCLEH
Description: Inhibition of aromatase in human JEG3 cells by scintillation spectrometry

Data set [2] has as its target T2, Steryl-sulfatase (Homo sapiens) (UniProt P08842).
T2 sequence (whole entry): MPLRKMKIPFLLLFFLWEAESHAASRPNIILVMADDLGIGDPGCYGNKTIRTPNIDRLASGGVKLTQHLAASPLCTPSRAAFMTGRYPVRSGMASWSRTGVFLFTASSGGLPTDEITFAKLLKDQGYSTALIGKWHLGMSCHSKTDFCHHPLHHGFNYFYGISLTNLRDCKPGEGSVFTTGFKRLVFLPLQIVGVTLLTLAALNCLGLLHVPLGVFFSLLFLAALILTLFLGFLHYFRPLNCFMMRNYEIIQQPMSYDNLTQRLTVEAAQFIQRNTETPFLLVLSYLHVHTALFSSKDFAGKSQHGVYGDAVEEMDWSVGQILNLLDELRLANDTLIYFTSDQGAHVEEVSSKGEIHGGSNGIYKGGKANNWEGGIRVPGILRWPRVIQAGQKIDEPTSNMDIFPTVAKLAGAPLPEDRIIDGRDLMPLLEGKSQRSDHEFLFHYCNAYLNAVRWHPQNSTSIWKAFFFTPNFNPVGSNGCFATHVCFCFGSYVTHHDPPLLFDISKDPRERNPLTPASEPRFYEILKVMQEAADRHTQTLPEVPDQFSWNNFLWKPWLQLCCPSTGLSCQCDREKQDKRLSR
Put plainly: Inhibition of steroid sulfatase in human JEG3 cells at 10 uM by scintillation spectrometry. The note with it: JEG-3. It counts as cell-based.

Data set [3] addresses T1, Aromatase. Put plainly: Inhibition of aromatase in human JEG3 cells at 1 uM by scintillation spectrometry. It is filed as cell-based, JEG-3. To be noted: for inhibition (INH): human, jeg-3, 1 µM.
The target of data set [4] is T1, Aromatase. Put plainly: Inhibition of aromatase in human JEG3 cells at 0.1 uM by scintillation spectrometry. It is filed as cell-based. To be noted: JEG-3, human.
The target in data set [5] is T3, Steryl-sulfatase (Homo sapiens, UniProt P08842).
T3 sequence (P08842 whole entry): T2 sequence (whole entry)
Briefly: Inhibition of steroid sulfatase in human JEG3 cells by scintillation spectrometry. It counts as cell-based, JEG-3.

Data set [6] relates to Rattus norvegicus. Briefly: Inhibition of aromatase in PMSG-pretreated Wistar rat at 1 mg/kg, po administered after 3 days of PMSG challenge by radioimmunoassay.
For data set [7], the system named is Rattus norvegicus. Put plainly: Inhibition of steroid sulfatase in PMSG-pretreated Wistar rat at 1 mg/kg, po administered after 3 days of PMSG challenge by liquid scintillation spectrometry. It counts as functional.
Data set [8] deals with Rattus norvegicus. Briefly: Inhibition of aromatase in Wistar rat assessed as inhibition of PMSG-induced plasma E2 level at 1 mg/kg, po administered after 3 days of PMSG challenge by radioimmunoassay. It is filed as functional.
Data set [9] deals with Rattus norvegicus. Put plainly: Inhibition of aromatase in Wistar rat assessed as inhibition of PMSG-induced plasma E2 level at 0.1 mg/kg, po administered after 3 days of PMSG challenge by radioimmunoassay. It counts as functional.
Data set [10] relates to Rattus norvegicus. Put plainly: Inhibition of steroid sulfatase in PMSG-pretreated Wistar rat liver at 0.1 mg/kg, po administered after 3 days of PMSG challenge by liquid scintillation spectrometry.
Data set [11] concerns Rattus norvegicus. Briefly: Inhibition of aromatase in PMSG-pretreated Wistar rat plasma at 0.1 mg/kg, po administered after 3 days of PMSG challenge by radioimmunoassay. It is filed as functional.
Data set [12] concerns Rattus norvegicus. Put plainly: Estrogenic toxicity in Wistar rat assessed as increase in uterine weight at 10 mg/kg, po for 4 days. It is filed as organism-based. Further details: dose 10 mg/kg, route oral. The note with it: in vivo, 96 h.
Data set [13] deals with T1, Aromatase. Briefly: Inhibition of aromatase in human JEG3 cells at 10 uM by scintillation spectrometry. To be noted: JEG-3, human. It is filed as cell-based.

Structures are written as SMILES.

As a reminder, the IC50 is the concentration that gives 50% inhibition. Higher therefore signals weaker potency in that assay. With `c1ccc(-c2cccc(Cn3cncn3)c2)cc1`, half-maximal inhibition in [1] (IC50) was put at 210 nM.
The inhibition is how much of the control response was suppressed. Read a high inhibition as a strong effect. Compound `CC(C)(C#N)c1cc(Cn2cncn2)cc(-c2ccc(OS(N)(=O)=O)c(Cl)c2)c1` registered an IC50 in data set [1] of 0.3 nM. The compound further showed an inhibition in data set [2] of 68.2%.
`N#Cc1cc(Cn2cncn2)ccc1-c1ccccc1`: the IC50 in [1] was 4.6 nM.
As to `N#Cc1ccc(-c2ccccc2)cc1Cn1cncn1`, in [3], the inhibition (INH) amounted to 68.8%. In addition, the inhibition at 0.1 µM in data set [4] was found to be 23.9%.
Regarding `NS(=O)(=O)Oc1ccc(-c2cccc(Cn3cncn3)c2)cc1`, the results for the IC50 in data set [5] and in [1] were 5500 nM and 275 nM, respectively.
Consider `N#Cc1ccc(-c2ccc(O)c(Cl)c2)cc1Cn1cncn1`, for which the midpoint of inhibition in data set [1], the IC50, lay at 74 nM.
In the case of `N#Cc1cc(Cn2cncn2)cc(-c2ccc(O)c(Cl)c2)c1`, the IC50 in data set [1] turned out to be 24 nM.
`Oc1ccc(-c2cccc(Cn3cncn3)c2)cc1Cl`: the inhibition (INH) in data set [3] was found to be 85.3%. Also, in data set [4], the inhibition at 0.1 µM turned out to be 36.6%.
Compound `N#Cc1ccc(Cn2cncn2)c(-c2ccccc2)c1` came in with an IC50 in data set [1] of 1.7 nM.
With `N#Cc1cc(Cn2cncn2)cc(-c2ccc(F)cc2)c1`, 19 nM corresponded to half-maximal inhibition in data set [1] (IC50).
For orientation: inhibition in vivo means the relative decrease from the control value, in per cent. For `N#Cc1ccc(Cn2cncn2)cc1-c1ccc(O)cc1`, the inhibition in vivo at 1 mg/kg amounted to 72% in [6] and 10% in data set [7]. Also, the concentration for half-maximal inhibition (IC50) in [1] turned out to be 0.2 nM. Also, in [8], the “plasma estradiol (E2) level” value came out at 94 pg/mL.
`N#Cc1cc(Cn2cncn2)cc(-c2ccccc2)c1` showed an IC50 in [1] of 29.3 nM.
With `N#Cc1ccc(Cn2cncn2)c(-c2ccc(OS(N)(=O)=O)c(Cl)c2)c1`, the IC50 is greater than 10000 nM in [5] and 1.9 nM in [1].
In data set [1], `N#Cc1ccc(-c2cc(C#N)cc(Cn3cncn3)c2)cc1` displayed an IC50 of 52 nM.
As to `N#Cc1cc(Cn2cncn2)ccc1-c1ccc(OS(N)(=O)=O)cc1`, the half-inhibitory concentration (IC50) was determined as 28.6 nM in data set [5] and 284 nM in data set [1].
As for `N#Cc1ccc(Cn2cncn2)c(-c2ccc(O)c(Cl)c2)c1`, 0.8 nM corresponded to half-maximal inhibition in data set [1] (IC50).
With `N#Cc1ccc(Cn2cncn2)cc1-c1ccc(Cl)c(OS(N)(=O)=O)c1`, the IC50 in data set [5] was greater than 10000 nM; in data set [1], 0.35 nM.
Turning to `CN(C)S(=O)(=O)Oc1ccc(-c2cc(Cn3cncn3)ccc2C#N)cc1`, the half-inhibitory concentration (IC50) in data set [5] was greater than 10000 nM; in data set [1] it was 0.5 nM.
`N#Cc1cc(Cn2cncn2)cc(-c2ccc(OS(N)(=O)=O)cc2)c1`: the IC50 was greater than 10000 nM in data set [5] and 280 nM in data set [1].
For `Oc1ccc(-c2cccc(Cn3cncn3)c2)cc1`, in [3], the inhibition (INH) was determined as 79%. The same compound gave an inhibition at 0.1 µM in [4] of 24.6%.
In data set [1], `N#Cc1ccc(Cn2cncn2)cc1-c1ccc(Cl)c(O)c1` came in with a half-maximal inhibitory concentration (IC50) of 0.22 nM.
As for `N#Cc1ccc(-c2ccc(OS(N)(=O)=O)c(Cl)c2)cc1Cn1cncn1`, the values for the IC50 in data set [5] and in data set [1] were 32.6 nM and 146 nM, respectively.
As to `NS(=O)(=O)Oc1ccc(-c2cccc(Cn3cncn3)c2)cc1Cl`, the values for the IC50 in data set [5] and in data set [1] were 160 nM and 70 nM, respectively.
In data set [1], `N#Cc1ccc(Cn2cncn2)cc1-c1ccccc1` came in with an IC50 of 0.2 nM.
Still for that read-out and setting: the figure for `CC(C)(C#N)c1cc(Cn2cncn2)cc(-c2ccccc2)c1` is 0.5 nM.
In turn, `N#Cc1ccc(-c2ccc(O)cc2)cc1Cn1cncn1` showed an inhibition (INH) in data set [3] of 76.4%. The same compound gave an inhibition at 0.1 µM in [4] of 35.1%.
As for `CCCN1C(=O)CC2C3CCc4cc(OS(N)(=O)=O)ccc4C3CC[C@]2(C)C1=O` (stereo partly specified), the inhibition in vivo at 1 mg/kg in [7] turned out to be 99%.
Consider `CC(C)(C#N)c1cc(Cn2cncn2)cc(-c2ccc(OS(N)(=O)=O)cc2)c1`, for which the IC50 was greater than 10000 nM in [5] and 17.5 nM in data set [1].
`N#Cc1ccc(Cn2cncn2)cc1-c1cccc(Cl)c1`: the IC50 in data set [1] was 0.22 nM.
`N#Cc1cc(Cn2cncn2)ccc1-c1ccc(O)cc1` registered an IC50 in [1] of 920 nM.
`N#Cc1ccc(C(c2ccc(C#N)cc2)n2cncn2)cc1` [LETROZOLE]: the Activity in data set [9] was found to be 49 pg/mL. For the same compound, the results for the inhibition in vivo at 0.1 mg/kg in [10] and in [11] were 0% and 85%, respectively.
With `N#Cc1ccc(Cn2cncn2)cc1-c1ccc(OS(N)(=O)=O)c(Cl)c1`, the IC50 in data set [5] turned out to be 5.5 nM. Besides, the inhibition in vivo at 1 mg/kg was 60% in data set [6] and 92% in data set [7]. The Activity entry in [12] is “Non-toxic”. For the same compound, the “plasma estradiol (E2) level” value in data set [8] stood at 132 pg/mL.
As for `N#Cc1ccc(-c2cccc(OS(N)(=O)=O)c2)cc1Cn1cncn1`, in data set [5], the IC50 was greater than 10000 nM. In addition, in data set [3] (JEG-3, human), the inhibition at 1 µM is 63.4%.
`CC(C)(C#N)c1cc(Cn2cncn2)cc(-c2ccc(O)c(Cl)c2)c1`: 0.1 nM corresponded to half-maximal inhibition in [1] (IC50).
Take `N#Cc1ccc(Cn2cncn2)cc1-c1ccc(O)c(Cl)c1`: the inhibition in vivo at 1 mg/kg in data set [6] was determined as 11%; in [7] it was 5%. In addition, in [8], the “plasma estradiol (E2) level” value is 297 pg/mL.
In data set [5], `N#Cc1ccc(-c2ccc(OS(N)(=O)=O)cc2)c(C#N)c1` had an IC50 of 16.3 nM. In data set [13], this compound yielded an inhibition at 10 µM of 47%.
In the case of `N#Cc1ccc(Cn2cncn2)cc1-c1ccc(OS(N)(=O)=O)cc1`, the IC50 was 35 nM in data set [5] and 2 nM in [1]. The inhibition in vivo at 1 mg/kg in [6] was determined as 63%; in [7] it was 77%. Further, in data set [8], the “plasma estradiol (E2) level” value came out at 124 pg/mL.
The compound `N#Cc1ccc(-c2cccc(O)c2)cc1Cn1cncn1` came in with an IC50 in data set [1] of 14.4 nM.
In turn, `CC(C)(C#N)c1cc(Cn2cncn2)cc(-c2ccc(O)cc2)c1` had an IC50 in data set [1] of 6 nM.
`N#Cc1cc(Cn2cncn2)ccc1-c1ccc(OS(N)(=O)=O)c(Cl)c1`: the IC50 worked out at 29 nM in [5] and 571 nM in data set [1].
With `N#Cc1cc(Cn2cncn2)cc(-c2ccc(O)cc2)c1`, it took 112 nM to reach half-maximal inhibition in [1] (IC50).
In the case of `N#Cc1ccc(N(Cc2ccc(OS(N)(=O)=O)c(Br)c2)n2cnnc2)cc1`, in data set [12], the Activity result is listed as “Non-toxic”.
As for `N#Cc1cc(Cn2cncn2)ccc1-c1ccc(O)c(Cl)c1`, the midpoint of inhibition in data set [1], the IC50, lay at 380 nM.
For `N#Cc1cc(Cn2cncn2)cc(-c2ccc(OS(N)(=O)=O)c(Cl)c2)c1`, the IC50 in [5] was found to be 6330 nM; in [1], 80 nM.
As to `CN(C)S(=O)(=O)Oc1ccc(-c2cc(Cn3cncn3)ccc2C#N)cc1Cl`, the IC50 in data set [5] is greater than 10000 nM; in [1] it was 2.4 nM.
With `N#Cc1ccc(-c2ccc(OS(N)(=O)=O)cc2)cc1Cn1cncn1`, the concentration for half-maximal inhibition (IC50) in data set [5] is 140 nM; in [1], 176 nM.

For the origin of these results see ChEMBL document CHEMBL1157574 (J Med Chem, 2010).
